Experimental findings from PubChem BioAssay (NCI) are described below.

Holding throughout (assay): DTP human tumour cell line panel, 48 h
The test system of assay [1] is RXF 393 renal.
Assay [2] concerns NCI-H226 lung.
For assay [3], the system named is SF-295 CNS.
Assay [4] relates to SN12C renal.
For assay [5], the system named is OVCAR-3 ovarian.
The subject of assay [6] is DU-145 prostate.
Assay [7] relates to M14 melanoma.
Assay [8] concerns MCF7 breast.
The subject of assay [9] is HOP-62 NSCLC.
The test system of assay [10] is SW-620 colon.
For assay [11], the system named is OVCAR-8 ovarian.
The subject of assay [12] is EKVX NSCLC.
Assay [13] relates to A549 NSCLC.
Assay [14] relates to OVCAR-5 ovarian.
Assay [15] relates to COLO 205 colon.
The test system of assay [16] is HS 578T breast.
The test system of assay [17] is LOX IMVI melanoma.
Assay [18] deals with HL-60(TB) leukemia.
The subject of assay [19] is NCI-H460 lung.

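Test compounds were applied to cells in 96-well plates for 48 hours at 5 doses. The concentration for full growth arrest is given as TGI.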 A value given as a limit tells only on which side of the number the result lay.

Usually TGI stands for the concentration at which net growth stops. Higher therefore signals less potent growth arrest. `CC(C)=C1C(=O)C[C@]2(C)C/C=C(\C)CC/C=C(\C)CC[C@@H]12`: the TGI is 15.2 µM in assay [1]; 16 µM in [2]; 31.3 µM in [3]; 17.3 µM in assay [4]; 18.1 µM in assay [5]; more than 50 µM in [6]. For the same molecule, the TGI was 15.8 µM in assay [7]; 30.4 µM in [8]; 18.5 µM in assay [9]; 17.3 µM in [10]; 16 µM in assay [11]; 32.5 µM in assay [12]. In addition, the TGI in assay [13] is more than 50 µM; in assay [14], 32.1 µM; in assay [15] it was 16.6 µM; in assay [16] it was 28 µM.
Consider `CSc1sc(C)cc1-c1nsc(=O)o1`, for which the TGI in [1], in [17], in [3], in assay [4], in [6] and in assay [18] was more than 100 µM in each case. In addition, the concentration for total growth inhibition (TGI) in assay [7], in assay [8], in assay [10], in [12], in assay [13] and in [19] was more than 100 µM throughout. For the same molecule, the TGI in assay [14], in assay [15] and in [16] was more than 100 µM throughout.
For the molecule `Nc1nc(N)nc(-c2cnc3ccccc3c2)n1`, the concentration for total growth inhibition (TGI) in [1], in assay [2], in assay [17], in assay [3], in assay [4] and in assay [5] was more than 100 µM each time. The TGI in assay [6], in assay [7], in [8], in [9], in assay [10] and in assay [11] was more than 100 µM throughout. Moreover, the TGI in assay [12], in assay [13], in assay [19], in assay [14], in [15] and in [16] was more than 100 µM each time.
As to `O=c1oc2ccccc2c(-c2ccc(O)cc2)c1Oc1ccc(Cl)cc1`, the TGI was determined as 57.8 µM in [1]; 86.3 µM in [2]; 62 µM in [17]; 60.6 µM in [3]; 79.7 µM in [4]; 39.7 µM in [5]. The concentration for total growth inhibition (TGI) was more than 100 µM in [6]; 39 µM in assay [7]; 72.3 µM in assay [8]; more than 100 µM in assay [10]; 69.7 µM in assay [11]; 68.7 µM in assay [12]. For the same molecule, the TGI in [13] is 47.3 µM; in assay [19] it was 54.4 µM; in assay [14] it was more than 100 µM; in assay [15], 56.2 µM; in assay [16] it was more than 100 µM.
Regarding `O=C(c1ccsc1)c1cc2c(s1)C(=O)c1ccsc1C2=O`, the TGI in assay [1] turned out to be 0.385 µM; in assay [2], 1.11 µM; in assay [3], 0.324 µM; in assay [4] it was 0.125 µM; in [5], 0.392 µM; in assay [6] it was 0.296 µM. Further, the TGI is more than 100 µM in assay [18]; 0.247 µM in assay [7]; 0.383 µM in assay [8]; 0.431 µM in assay [9]; 0.341 µM in assay [10]; 0.424 µM in assay [11]. For the same molecule, the TGI in [12] amounted to 0.373 µM; in assay [13] it was 1.25 µM; in assay [19], 0.367 µM; in assay [14] it was 1.01 µM; in [15], 2.97 µM; in assay [16] it was 0.549 µM.
With `COc1cc(/C=C2/C[C@H]3[C@@H]4CCC5=CC(=O)CC[C@]5(C)[C@H]4CC[C@]3(C)NC2=O)cc(OC)c1OC`, the TGI in [1] was 46.7 µM; in assay [2], more than 100 µM; in assay [3] it was 77.7 µM; in assay [4], more than 100 µM; in assay [5] it was more than 100 µM; in [6], more than 100 µM. Also, the TGI is 45.3 µM in assay [18]; more than 100 µM in assay [7]; 88.9 µM in [8]; more than 100 µM in assay [9]; more than 100 µM in assay [10]; 70.7 µM in assay [11]. In addition, the TGI in [12] is more than 100 µM; in [13], more than 100 µM; in [19], more than 100 µM; in assay [14] it was 57.7 µM; in assay [15], 44.4 µM; in [16] it was 73.9 µM.
`O=C1OC(C2Cc3cc4c(cc3C2=O)CCC4)c2ccccc21` (stereo not given): the TGI was 58.6 µM in assay [2]; more than 100 µM in [17]; more than 100 µM in assay [3]; more than 100 µM in assay [4]; more than 100 µM in assay [5]; more than 100 µM in assay [6]. Also, the TGI in [18], in assay [7], in [8], in [9], in assay [10] and in assay [11] was more than 100 µM in each case. Further, the TGI in assay [12], in assay [13], in assay [19], in [14], in assay [15] and in assay [16] was more than 100 µM in each case.
Consider `Nc1cc(OCc2ccccc2)c(OCc2ccccc2)cc1C=O`, for which the TGI is more than 100 µM in assay [2]; 77.2 µM in assay [17]; 70 µM in assay [3]; more than 100 µM in assay [4]; more than 100 µM in [6]; 40 µM in [18]. The TGI in assay [8] was more than 100 µM; in assay [10] it was more than 100 µM; in [11], more than 100 µM; in assay [12], more than 100 µM; in assay [13], more than 100 µM; in assay [19] it was 52.8 µM. The TGI is more than 100 µM in assay [14], 77.3 µM in assay [15] and more than 100 µM in assay [16].
